{"source": "patent EP0918774B9", "about": "“ANDROGEN RECEPTOR MODULATOR COMPOUNDS AND METHODS” (LIGAND PHARMACEUTICALS INCORPORATED, priority 1996, dated 1997)", "key": {"[1]": {"molecular_target": "T1, human AR (Homo sapiens, UniProt P10275)", "T1 construct": "expressed in transfected cells; host or cells: CV-1 cells (African green monkey kidney fibroblasts), transient calcium phosphate transfection", "T1 sequence (P10275 1-920)": "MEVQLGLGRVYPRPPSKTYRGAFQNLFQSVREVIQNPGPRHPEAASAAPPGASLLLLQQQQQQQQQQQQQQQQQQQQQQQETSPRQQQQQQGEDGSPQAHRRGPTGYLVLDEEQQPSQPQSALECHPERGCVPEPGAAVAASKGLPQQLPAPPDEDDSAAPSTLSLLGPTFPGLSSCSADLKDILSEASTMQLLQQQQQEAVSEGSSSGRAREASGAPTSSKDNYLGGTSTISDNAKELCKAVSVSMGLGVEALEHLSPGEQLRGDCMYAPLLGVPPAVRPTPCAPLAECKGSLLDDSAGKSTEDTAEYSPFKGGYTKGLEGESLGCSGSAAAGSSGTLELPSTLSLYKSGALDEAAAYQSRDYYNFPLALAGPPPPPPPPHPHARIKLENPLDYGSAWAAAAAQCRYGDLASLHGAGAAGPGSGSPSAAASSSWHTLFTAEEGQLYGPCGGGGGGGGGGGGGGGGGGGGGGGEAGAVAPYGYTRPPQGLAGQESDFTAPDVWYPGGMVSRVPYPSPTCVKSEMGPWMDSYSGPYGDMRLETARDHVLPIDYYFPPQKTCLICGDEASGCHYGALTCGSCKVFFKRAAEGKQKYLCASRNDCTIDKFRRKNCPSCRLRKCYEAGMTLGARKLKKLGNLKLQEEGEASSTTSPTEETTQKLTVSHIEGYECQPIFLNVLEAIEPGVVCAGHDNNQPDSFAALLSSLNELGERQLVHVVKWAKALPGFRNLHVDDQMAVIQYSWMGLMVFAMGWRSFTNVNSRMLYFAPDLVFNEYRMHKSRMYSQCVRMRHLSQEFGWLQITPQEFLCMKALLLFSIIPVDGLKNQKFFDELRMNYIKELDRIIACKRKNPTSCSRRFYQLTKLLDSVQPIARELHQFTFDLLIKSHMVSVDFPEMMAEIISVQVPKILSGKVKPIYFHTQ", "assay": "cell-based", "format": "binding"}, "[2]": {"molecular_target": "T2, ER (Homo sapiens, UniProt P03372)", "T2 construct": "expressed in transfected cells; host or cells: CV-1 cells", "T2 sequence (P03372 whole entry)": "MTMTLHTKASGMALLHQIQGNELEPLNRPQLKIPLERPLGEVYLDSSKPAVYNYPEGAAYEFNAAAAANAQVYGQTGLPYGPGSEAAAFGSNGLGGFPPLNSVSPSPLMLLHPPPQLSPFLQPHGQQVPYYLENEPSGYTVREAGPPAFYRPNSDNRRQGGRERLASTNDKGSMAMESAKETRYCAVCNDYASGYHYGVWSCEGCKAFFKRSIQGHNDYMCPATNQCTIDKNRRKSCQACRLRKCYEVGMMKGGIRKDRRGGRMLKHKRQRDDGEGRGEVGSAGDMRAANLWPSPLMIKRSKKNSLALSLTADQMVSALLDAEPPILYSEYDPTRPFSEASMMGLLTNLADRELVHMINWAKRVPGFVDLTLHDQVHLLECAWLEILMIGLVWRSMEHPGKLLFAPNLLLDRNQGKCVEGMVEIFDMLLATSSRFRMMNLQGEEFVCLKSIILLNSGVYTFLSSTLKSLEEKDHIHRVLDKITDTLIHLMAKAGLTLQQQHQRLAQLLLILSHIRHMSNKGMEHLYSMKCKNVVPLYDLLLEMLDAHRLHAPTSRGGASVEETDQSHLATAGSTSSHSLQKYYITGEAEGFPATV", "assay": "Co-transfection assay, ER agonist mode", "format": "cell-based", "experimental": "(§1) CV-1 cells (African green monkey kidney fibroblasts) were cultured in the presence of Dulbecco's Modified Eagle Medium (DMEM) supplemented with 10% charcoal resinstripped fetal bovine serum then transferred to 96-well microtiter plates one day prior to transfection.\n(§2) Three to four replicates were used for each sample.\n(§3) After 40 hours, the cells were washed with PBS, lysed with a Triton X-100-based buffer and assayed for LUC and β-Gal activities using a luminometer or spectrophotometer, respectively. For each replicate, the normalized response (NR) was calculated as: LUC response/β-Gal rate where β-Gal rate = β-Gal•1x10^-5/β-Gal incubation time."}, "[3]": {"molecular_target": "T2, ER", "assay": "Co-transfection assay, ER antagonist mode", "format": "cell-based", "experimental": "as §1, §2, §3"}, "[4]": {"molecular_target": "T3, GR (Homo sapiens, UniProt P04150)", "T3 sequence (P04150 1-777)": "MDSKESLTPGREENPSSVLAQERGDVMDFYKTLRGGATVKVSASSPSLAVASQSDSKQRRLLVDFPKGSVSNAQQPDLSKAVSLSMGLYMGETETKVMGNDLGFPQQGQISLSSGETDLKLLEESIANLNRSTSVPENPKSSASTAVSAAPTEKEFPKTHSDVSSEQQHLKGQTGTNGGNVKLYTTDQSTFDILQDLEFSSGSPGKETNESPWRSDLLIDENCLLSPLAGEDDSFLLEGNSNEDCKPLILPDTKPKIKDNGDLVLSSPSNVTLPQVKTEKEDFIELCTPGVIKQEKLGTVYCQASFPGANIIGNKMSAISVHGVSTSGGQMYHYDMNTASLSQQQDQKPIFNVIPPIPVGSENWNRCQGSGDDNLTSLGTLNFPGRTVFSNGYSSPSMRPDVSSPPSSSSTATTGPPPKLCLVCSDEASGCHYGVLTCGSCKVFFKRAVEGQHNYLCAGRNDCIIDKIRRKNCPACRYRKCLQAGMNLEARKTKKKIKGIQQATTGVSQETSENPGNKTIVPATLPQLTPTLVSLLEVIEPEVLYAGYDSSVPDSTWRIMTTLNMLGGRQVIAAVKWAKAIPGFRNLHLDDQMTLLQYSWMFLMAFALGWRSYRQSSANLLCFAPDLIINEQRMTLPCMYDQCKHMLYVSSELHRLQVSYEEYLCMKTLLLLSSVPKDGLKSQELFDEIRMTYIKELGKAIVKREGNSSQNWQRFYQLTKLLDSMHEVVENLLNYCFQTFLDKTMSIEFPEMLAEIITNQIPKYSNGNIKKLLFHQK", "assay": "cell-based", "experimental": "as §1, §2, §3"}, "[5]": {"molecular_target": "T4, MR (Homo sapiens, UniProt P08235)", "T4 construct": "expressed in transfected cells; host or cells: CV-1 cells", "T4 sequence (P08235 1-984)": "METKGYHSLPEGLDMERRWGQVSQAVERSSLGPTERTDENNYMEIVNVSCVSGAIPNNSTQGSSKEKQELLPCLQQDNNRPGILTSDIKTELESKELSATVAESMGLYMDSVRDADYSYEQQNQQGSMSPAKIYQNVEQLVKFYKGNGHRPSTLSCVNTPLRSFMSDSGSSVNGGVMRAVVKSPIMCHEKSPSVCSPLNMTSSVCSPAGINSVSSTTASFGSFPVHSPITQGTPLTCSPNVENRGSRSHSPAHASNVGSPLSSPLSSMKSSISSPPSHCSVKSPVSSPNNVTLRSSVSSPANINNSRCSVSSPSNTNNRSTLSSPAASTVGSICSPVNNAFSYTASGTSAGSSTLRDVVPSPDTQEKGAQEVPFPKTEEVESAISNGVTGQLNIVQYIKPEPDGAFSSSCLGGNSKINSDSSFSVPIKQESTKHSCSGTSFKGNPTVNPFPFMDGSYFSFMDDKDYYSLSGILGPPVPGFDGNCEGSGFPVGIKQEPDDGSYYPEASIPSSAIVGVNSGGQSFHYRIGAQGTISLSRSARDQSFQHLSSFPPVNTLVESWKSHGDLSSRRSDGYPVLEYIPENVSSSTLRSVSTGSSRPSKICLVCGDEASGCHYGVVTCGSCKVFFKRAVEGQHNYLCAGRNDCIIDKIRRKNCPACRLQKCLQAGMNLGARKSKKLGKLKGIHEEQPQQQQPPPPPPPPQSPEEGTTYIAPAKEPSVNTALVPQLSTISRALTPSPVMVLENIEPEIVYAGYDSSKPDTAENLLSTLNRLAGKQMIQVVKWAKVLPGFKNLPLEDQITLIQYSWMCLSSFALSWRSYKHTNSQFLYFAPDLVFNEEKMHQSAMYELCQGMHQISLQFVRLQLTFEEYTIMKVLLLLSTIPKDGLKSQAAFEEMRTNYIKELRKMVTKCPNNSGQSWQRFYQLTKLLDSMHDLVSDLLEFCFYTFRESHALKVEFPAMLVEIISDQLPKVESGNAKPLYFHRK", "assay": "Co-transfection assay, MR antagonist mode", "format": "cell-based", "experimental": "as §1, §2, §3"}}, "note": "Like-named read-outs stand apart in the source and are kept apart here.", "data": [{"compound": "CC12CCCN1c1cc3[nH]c(=O)c(F)c(C(F)(F)F)c3cc1CC2", "note": "(racemic) [Compound 102, (R/S)-3-Fluoro-6,7,7a,11-tetrahydro-7a-methyl-4-trifluoromethyl-2-pyridono[5,6-g]pyrrolidino[1,2-a]quinoline]", "values": [{"measurement": "Ki", "setting": "[1]", "value": 0.078, "unit": "µM"}, {"measurement": "EC50", "setting": "[2]", "value": "> 10", "unit": "µM"}, {"measurement": "IC50", "setting": "[3]", "value": "> 10", "unit": "µM"}, {"measurement": "IC50", "setting": "[4]", "value": "> 10", "unit": "µM"}, {"measurement": "IC50", "setting": "[5]", "value": "> 10", "unit": "µM"}]}, {"compound": "CC12CCCN1c1cc3nc(O)cc(C(F)(F)F)c3cc1CC2", "note": "(racemic) [Compound 101, (R/S)-6,7,7a,11-Tetrahydro-7a-methyl-4-trifluoromethyl-2-pyridono[5,6-g]pyrrolidino[1,2-a]quinoline]", "values": [{"measurement": "Ki", "setting": "[1]; read-out: AR Binding Ki", "value": 0.169, "unit": "µM"}, {"measurement": "EC50", "setting": "[2]", "value": "> 10", "unit": "µM"}, {"measurement": "IC50", "setting": "[3]", "value": "> 10", "unit": "µM"}, {"measurement": "IC50", "setting": "[4]", "value": "> 10", "unit": "µM"}, {"measurement": "IC50", "setting": "[5]", "value": "> 10", "unit": "µM"}]}]}
